# Laboratory results taken from patent EP0942911B1, “BENZOPYRANOPYRROLE AND BENZOPYRANOPYRIDINE ALPHA-1 ADRENERGIC COMPOUNDS” (Abbott Laboratories, priority 1996, dated 1998).
# Where a name gives a salt, the structure may show the parent alone. Read-outs that look alike come from different tables or passages of the source.
# Tests used:
# Assay in all cases: biochemical
# [1] = molecular target: T1, α-1A adrenoreceptor (rat submaxillary gland) (Rattus norvegicus, UniProt P43140); assay type: binding; conditions: read-out: Radioligand Binding (Ki, nM) 1A (Rat)
# T1 sequence (P43140 1-466): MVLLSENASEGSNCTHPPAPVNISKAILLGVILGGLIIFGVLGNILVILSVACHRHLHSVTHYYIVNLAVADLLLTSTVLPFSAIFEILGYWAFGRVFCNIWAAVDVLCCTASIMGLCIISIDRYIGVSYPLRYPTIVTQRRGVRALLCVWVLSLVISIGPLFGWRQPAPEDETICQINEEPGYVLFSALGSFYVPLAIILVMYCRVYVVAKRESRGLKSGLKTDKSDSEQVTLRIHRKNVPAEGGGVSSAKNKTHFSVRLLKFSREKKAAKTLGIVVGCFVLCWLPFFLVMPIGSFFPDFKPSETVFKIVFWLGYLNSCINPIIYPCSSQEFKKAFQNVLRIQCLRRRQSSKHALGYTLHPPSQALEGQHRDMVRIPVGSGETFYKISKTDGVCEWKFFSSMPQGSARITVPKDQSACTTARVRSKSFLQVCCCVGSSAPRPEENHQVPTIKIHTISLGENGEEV
# Experimental: Additionally, binding affinity against the pharrnacologically defined α-1A adrenoreceptor (rat submaxillary gland) was measured.
# (§1) On the fifth day of culture, growth medium was removed from cells grown in roller bottles, and the cells were washed twice with PBS (Sigma, 120 mM NaCl, 2.7 mM KCl, 10 mM Na2HPO4-NaH2PO4, pH = 7.4). Cells were detached from the roller bottles by incubating for 15 minutes at 37 °C in a Tris-EDTA solution (10 mM Tris, 100 mM NaCl, 1 mM EDTA, pH = 7.4). The cell suspension from each roller bottle was decanted into tared centrifuge tubes and kept on ice. An aliquot of each cell suspension was generally taken for cell counting. Cells were centrifuged at 3000 X G for 5 min at 2-4 °C, washed with PBS and recentrifuged. The supernatant was decanted and the pellet weighed to determine the wet weight of cells. Cells were washed a final time in 40 vol 5 mM Tris-HCl, 5 mM EDTA, pH = 7.7, and centrifuged at 40,000 X G for 10 minutes. Cells were homogenized in 10 mL of 50 mM Tris-HCl, 5 mM EDTA (pH = 7.4) and diluted to 40 mL/tube. Homogenates were centrifuged at 40,000 X G for 10 minutes. The supernatant was decanted and the pellets rehomogenized in 50 mM Tris-HCl (pH = 7.4) and centrifuged as before. The supernatant was decanted and the homogenate resuspended in 6.25 volumes (per gram wet weight) of 50 mM Tris-HCl and aliquots of the pooled homogenates frozen in liquid N2 and stored at -70 °C until the time of assay. Rat submaxillary glands were used for α-1A adrenoreceptors and were prepared essentially as described (Michel, A. D., Loury, D. N. and Whiting, R. L., Brit. J. Pharmacol. 98: 83-889 (1989)).
# (§2) Receptor binding assays for α-1 adrenoreceptors were performed essentially as described by Greengrass and Bremner (Eur. J. Pharmacol. 55: 323-326 (1979)). […] Radioactivity was determined by standard liquid scintillation techniques. Data were analyzed as previously described (Hancock, A. A., Kyncl, J. J., Martin, Y. C. and DeBernardis, J. F., J. Receptor Res. 8: 23-46 (1988)).
# α-1a adrenoreceptor = molecular target: T2, α-1a adrenoreceptor (Bos taurus, UniProt P18130); assay type: binding, bovine; conditions: read-out: Radioligand Binding (Ki, nM) 1a (Bovine)
# T2 sequence (P18130 1-466): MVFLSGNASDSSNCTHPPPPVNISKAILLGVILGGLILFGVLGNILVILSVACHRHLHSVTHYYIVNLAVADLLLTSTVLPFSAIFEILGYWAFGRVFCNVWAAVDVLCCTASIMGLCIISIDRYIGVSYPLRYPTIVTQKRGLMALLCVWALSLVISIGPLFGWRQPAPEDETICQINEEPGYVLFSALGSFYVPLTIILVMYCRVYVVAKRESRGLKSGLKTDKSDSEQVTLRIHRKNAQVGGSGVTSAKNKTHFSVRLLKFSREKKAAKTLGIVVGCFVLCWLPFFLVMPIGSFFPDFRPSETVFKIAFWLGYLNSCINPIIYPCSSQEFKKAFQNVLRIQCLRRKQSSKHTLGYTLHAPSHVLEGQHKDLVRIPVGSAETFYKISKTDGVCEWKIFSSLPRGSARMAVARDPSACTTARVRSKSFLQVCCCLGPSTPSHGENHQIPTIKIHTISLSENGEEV
# Description: (§3) The cDNA clones encoding the α-1 adrenoreceptors (α-1a, α-1b, and α-1d) were obtained from TULCO (Triangle Universities Licensing Consortium, Research Triangle Park, NC) and inserted into the eukaryotic expression vector SnaB30. In this vector, expression of the adrenoreceptor gene is under the transcriptional control of an SV40 early promoter. Positive drug selection is provided by a neomycin-resistance gene. Mouse fibroblast cells (LTK) were transfected with the α1 expression plasmids and grown in Dulbecco's modified Eagle's medium (DMEM) containing 10% fetal calf serum and 30 µM G418. Stable G418-resistant parental lines were generated, with successful expression of adrenoreceptor protein monitored using radioligand binding techniques. Stable single cell clones derived from the parental lines were screened in adrenoreceptor binding assays to identify clones having high adrenoreceptor density. Roller bottle cultures of the cloned lines were used to provide cell membranes for subsequent adrenoreceptor binding characterization studies. A cell line containing the SnaB30 vector expressing the human erythropoietin gene served as a negative control.
# (§4) For adrenoreceptor binding assays, large scale membrane preparations were utilized in which 6 million cells were seeded into small (450 cm^2) Corning tissue culture roller bottles. 200 mL of DMEM containing 10% fetal calf serum and 300 µM G418 were added to each roller bottle. A 95% air / 5% CO2 gas mixture (sterile) was injected into each roller bottle prior to sealing. The bottles were then incubated at 37 °C on a roller rack for 5 days. Cells were re-fed with fresh medium after 3 days in culture.
# as §1, §2
# α-1b adrenoreceptor = molecular target: T3, α-1b adrenoreceptor (Mesocricetus auratus, UniProt P18841); assay type: binding, hamster; conditions: read-out: Radioligand Binding (Ki, nM) 1b (Hamster)
# T3 sequence (P18841 1-515): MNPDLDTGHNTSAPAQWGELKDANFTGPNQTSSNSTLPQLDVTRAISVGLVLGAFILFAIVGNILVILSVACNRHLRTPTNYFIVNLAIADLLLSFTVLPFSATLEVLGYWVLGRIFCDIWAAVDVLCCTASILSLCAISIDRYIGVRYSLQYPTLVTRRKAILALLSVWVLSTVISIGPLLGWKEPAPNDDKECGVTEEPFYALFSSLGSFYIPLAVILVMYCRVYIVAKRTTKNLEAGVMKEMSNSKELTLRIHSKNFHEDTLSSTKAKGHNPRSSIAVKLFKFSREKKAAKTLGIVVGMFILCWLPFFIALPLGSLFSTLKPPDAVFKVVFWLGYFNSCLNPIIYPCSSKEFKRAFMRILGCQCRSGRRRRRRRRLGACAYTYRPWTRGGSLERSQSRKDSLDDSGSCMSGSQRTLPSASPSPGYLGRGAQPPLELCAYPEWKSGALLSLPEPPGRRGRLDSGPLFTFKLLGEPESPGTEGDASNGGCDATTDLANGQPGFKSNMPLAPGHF
# Description: as §3, §4, §1, §2
# α-1d adrenoreceptor = molecular target: T4, α-1d adrenoreceptor (Rattus norvegicus, UniProt P23944); assay type: binding; conditions: read-out: Radioligand Binding (Ki, nM) 1d (Rat)
# T4 sequence (P23944 1-561): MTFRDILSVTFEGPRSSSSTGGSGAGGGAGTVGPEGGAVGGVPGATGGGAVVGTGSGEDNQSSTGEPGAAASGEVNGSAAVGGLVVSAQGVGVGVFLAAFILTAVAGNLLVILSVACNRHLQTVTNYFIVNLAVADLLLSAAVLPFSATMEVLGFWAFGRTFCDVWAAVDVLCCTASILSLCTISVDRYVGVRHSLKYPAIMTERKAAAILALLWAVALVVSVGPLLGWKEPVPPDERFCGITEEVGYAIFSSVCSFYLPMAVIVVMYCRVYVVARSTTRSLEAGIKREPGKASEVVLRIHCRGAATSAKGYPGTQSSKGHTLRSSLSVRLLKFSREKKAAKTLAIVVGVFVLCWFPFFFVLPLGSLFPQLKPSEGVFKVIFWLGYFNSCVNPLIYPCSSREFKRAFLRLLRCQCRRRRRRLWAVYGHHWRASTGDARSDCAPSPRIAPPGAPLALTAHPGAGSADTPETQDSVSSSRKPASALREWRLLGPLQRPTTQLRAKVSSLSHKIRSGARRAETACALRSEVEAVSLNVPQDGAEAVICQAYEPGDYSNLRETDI
# Description: as §3, §4, §1, §2
# [2] = [3H]-prazosin radioligand, rat submaxillary gland membranes
# [3] = [3H]-prazosin radioligand, cloned receptor in LTK cell membranes
Structure (SMILES),"Ki [1, 2]",Ki (α-1a adrenoreceptor; [3]),Ki (α-1b adrenoreceptor; [3]),Ki (α-1d adrenoreceptor; [3]),Ki [1],Ki (α-1a adrenoreceptor),Ki (α-1b adrenoreceptor),Ki (α-1d adrenoreceptor)
"COc1cccc2c1[C@@H]1CCN(CCCCn3c(=O)[nH]c4c(sc5nc(Cl)ccc54)c3=O)C[C@H]1CO2 [Example 102, 3-[4-((4aS,10bR)-trans-10-Methoxy-1,3,4,4a,5,10b-hexahydro-2H-[1]-benzopyrano[3,4-c]pyrido-3-yl)butyl]-7-chloro-pyrido[3',2':4,5]thieno[3,2-d]pyrimidine-2,4(1H,3H)-dione hydrochloride]",1.89 nM,0.113 nM,6.26 nM,0.651 nM,,,,
"COc1cc2[nH]c(=O)n(CCCCN3C[C@@H]4COc5cccc(OC)c5[C@@H]4C3)c(=O)c2cc1OC (racemic) [Example 79, 3-[4-((±)-cis-9-Methoxy-1,2,3,3a,4,9b-hexahydro-[1]-benzopyrano[3,4-c]pyrrol-2-yl)butyl]-6,7-dimethoxy-quinazoline-2,4(1H,3H)-dione hydrochloride]",,,,,0.199 nM,0.174 nM,0.821 nM,0.361 nM
"COc1cnc2sc3c(=O)n(CCCCN4C[C@H]5COc6cccc(OC)c6[C@@H]5C4)c(=O)[nH]c3c2c1 [Example 55, 3-[4-((3aS,9bR)-trans-9-Methoxy-1,2,3,3a,4,9b-hexahydro-[1]-benzopyrano[3,4-c]pyrrol-2-yl)butyl]-8-methoxy-pyrido[3',2':4,5]thieno[3,2-d]pyrimidine-2,4(1H,3H)-dione hydrochloride]",0.111 nM,0.103 nM,1.46 nM,0.02 nM,,,,
"COc1cccc2c1[C@@H]1CN(CCCCn3c(=O)[nH]c4c(sc5c(Cl)ccnc54)c3=O)C[C@H]1CO2 [Example 19, 3-[4-((3aS,9bR)-trans-9-Methoxy-1,2,3,3a,4,9b-hexahydro-[1]-benzopyrano[3,4-c]pyrrol-2-yl)butyl]-6-chloro-pyrido[2',3':4,5]thieno[3,2-d]pyrimidine-2,4(1H,3H)-dione hydrochloride]",0.059 nM,0.025 nM,1.13 nM,0.108 nM,,,,
"COc1cccc2c1[C@H]1CCN(CCCCn3c(=O)[nH]c4c(sc5ncc(Cl)nc54)c3=O)C[C@@H]1CO2 [Example 96, 3-[4-((4aR,10bS)-trans-10-Methoxy-1,3,4,4a,5,10b-hexahydro-2H-[1]-benzopyrano[3,4-c]pyrido-3-yl)butyl]-8-chloro-pyrazino[2',3':4,5]thieno[3,2-d]pyrimidine-2,4(1H,3H)-dione dihydrochloride]",0.816 nM,0.211 nM,10.4 nM,0.816 nM,,,,
"COc1cccc2c1[C@@H]1CN(CCCCn3c(=O)[nH]c4c(sc5ccc(-c6cccnc6)nc54)c3=O)C[C@@H]1CO2 [Example 56, 3-[4-((3aR,9bR)-cis-9-Methoxy-1,2,3,3a,4,9b-hexahydro-[1]-benzopyrano[3,4-c]pyrrol-2-yl)butyl]-8-(3-pyridyl)-pyrido[2',3';4,5]thieno[3,2-d]pyrimidine-2,4(1H,3H)-dione dihydrochloride]",0.614 nM,0.078 nM,10.2 nM,1.31 nM,,,,
"COc1cccc2c1[C@H]1CCN(CCCn3c(=O)[nH]c4c(sc5cccnc54)c3=O)C[C@@H]1CO2 [Example 93, 3-[3-((4aR,10bS)-trans-10-Methoxy-1,3,4,4a,5,10b-hexahydro-2H-[1]-benzopyrano[3,4-c]pyrido-3-yl)propyl]-pyrido[2',3':4,5]thieno[3,2-d]pyrimidine-2,4(1H,3H)-dione dihydrochloride]",4.04 nM,1.2 nM,3.67 nM,11.5 nM,,,,
"COc1cccc2c1[C@@H]1CN(CCCCn3c(=O)[nH]c4c(sc5nccnc54)c3=O)C[C@H]1CO2 [Example 14, 3-[4-((3aS,9bR)-trans-9-Methoxy-1,2,3,3a,4,9b-hexahydro-[1]-benzopyrano[3,4-c]pyrrol-2-yl)butyl]-pyrazino[2',3':4,5]thieno[3,2-d]pyrimidine-2,4(1H,3H)-dione dihydrochloride]",0.105 nM,0.038 nM,1.37 nM,0.145 nM,,,,
